Measurements published in patent US6596500B1, “Binding of retinoids to M6P/IGF-II receptor” (The General Hospital Corporation, priority 1998, dated 2003).

Legend:
[1] = target: T1, partially-purified neonatal rat serum IGF2R (Rattus norvegicus, UniProt G3V824); test: Competitive radioligand (10 nM [3H]RA) binding assay; details: n=3, read-out: IC50 (50% inhibitory concentration) for [3H]RA binding
T1 construct: both intact (300 kDa) and truncated (260 kDa) forms of M6P/IGF-II receptor exist in the serum; from tissue; host or cells: neonatal rat serum, FPLC Sepharose-12 fraction
Experimental: Partially purified M6P/IGF-II receptors from neonatal rat serum was prepared using a Fast Protein Liquid Chromatography (FPLC) system equipped with a Sepharose-12 column (Pharmacia). The partially purified M6P/IGF2R protein was diluted in binding buffer (20 mM Tris-HCl, pH 8.0/150 mM NaCl/1mM DTT/protease inhibitors) at a concentration of 50 Ag/ml. […] Incubation was carried out at 22° C. for 2 h in the dark. After the incubation, 0.2 ml chilled charcoal-dextran suspension (charcoal/dextran/glycerol=0.5%/0.05%/20%) was added to remove the unbound ligand.

[2] = test system: neonatal rat cardiac myocytes; test: Growth, morphology and apoptosis of cardiac myocytes; assay type: cell-based; details: 48 hours
Experimental: Cultured neonatal rat cardiac myocytes were known to express high levels of the M6P/IGF2R protein. The effect of RA on the growth of normal, neonatal rat cardiac myocytes was examined.
Cell Isolation and Culture For the photoaffinity labeling experiments, cardiac myocytes were isolated from 1-day-old neonatal Sprague-Dawley rats, using the Neonatal Cardiomyocyte Isolation System (Worthington). The isolated cell were cultured on Petri dishes with culture medium (F-10 nutrient mixture/10% horse serum/5% fetal bovine serum/50 μg/ml streptomycin/50 units/ml penicillin G). Cells were used for experiments after 2-6 days of culture.

[3] = test system: P388D1 cells; test: Morphology, growth and apoptosis of P388D1 cells overexpressing M6P/IGF2R; assay type: cell-based, mouse; details: P388D1 cells overexpressing M6P/IGF2R
Experimental: FIG. 10 is a graph showing the effect of RA treatment on growth rate of P388D1 cells overexpressing M6P/IGF2R protein and P388D1 controls. Open circles, vector control cells without RA treatment; closed circles, vector control cells with 1 μM RA treatment; open triangles, overexpressing cells without RA treatment; closed triangles overexpressing cells with 1 μM RA treatment.
We examined M6P/IGF2R-mediated effects of RA in mouse macrophage P388D1 cells, which are the best characterized cells that lack the M6P/IGF2R protein.

[4] = target: T2, M6P/IGF2R (300 kDa protein) (Rattus norvegicus, UniProt G3V824); test: [3H]RA photoaffinity labeling of the 300 kDa protein; assay type: binding; details: for Inhibition of [3H]RA photolabeling/binding to M6P/IGF2R by nonradioactive competitor: 25- to 50-fold molar excess (50 μM) competitor added before photolysis
T2 construct: about 100 μg of proteins of membrane preparations or serum; from tissue; host or cells: membrane preparations of cultured neonatal Sprague-Dawley rat cardiac myocytes
Experimental: Photoaffinity Labeling Photoaffinity labeling was performed essentially according to the methods described in Bernstein et al., 1995, Proc. Natl. Acad. Sci. USA 92:654-658. […] After the ethanol has been evaporated with nitrogen, about 100 μg of proteins of membrane preparations or serum [serum proteins were first concentrated using a Biomax-100K Centrifugal Filter Device (Millipore)] were then added to each tube. The final volume was adjusted to 100 μl with 50 mM Tris buffer (pH 7.4) containing protease inhibitors (5 mM EDTA, 5 mM EGTA, 0.1 mM phenylmethylsulfonyl fluoride, 0.05% NaN3, 20 μg/ml aprotinin, 10 μg/ml benzamidine and 12.5 μg/ml chymostatin) and 50 μM butylated hydroxytoluene (a radical scavenger, used to minimize the non-specific labeling) for a final concentration of 1 μM labeled retinoic acid. The samples were incubated at room temperature with agitation for 1 hour in the dark. The samples were exposed to an intense 365-nm UV light source (Model B 100AP, UPland, CA) for 7 min. […] To remove the non-covalently bound ligands, the photolabeled samples were extracted with chloroform/methanol (2:1), or washed once by centrifugation for membrane samples only).
Fluorography The resultant protein pellets were dissolved in SDS sample buffer containing 5% β-mercapto-ethanol and heated at 100° C. for 5 min. These samples were then run on 7% polyacrylamide gels (30:0.2, acrylamide/bisacrylamide ratio), using conventional SDS/PAGE techniques. After electrophoresis, the gels were stained with Coomassie blue, soaked in Amplifier (Amersham, Life Science) for 30 minutes, dried by a vacuum gel dryer and then exposed to Hyperfilm-TM X-ray films (Amersham, Life Science) at […] for 1-3 days.

[5] = test system: neonatal rat fibroblasts; test: Immunofluorescence of cathepsin B distribution in fibroblasts; assay type: cell-based; details: RAR antagonist with RA
Excerpt: FIGS. 8A and 8B are photomicrographs showing effect of retinoic acid on the distribution of cathepsin B in neonatal rat fibroblasts. […] The enzyme was found mainly in the perinuclear area. […] Bar represents 4 μm.
Since biosynthetic transport of lysosomal enzymes from the TGN to endosomes/lysosomes is mainly mediated by the M6P/IGF2R (Sohar et al., 1998, Biochem. J. 330:903-908), an enhanced trafficking of the receptor should lead to an increased translocation of the M6P-containing lysosomal enzymes from the TGN to lysosomes. To test this, we examined the effect of RA on the intracellular distribution of cathepsin B, a lysosomal protease known to be transported in a M6P-dependent manner in fibroblasts (Hanewinkel et al., 1987, J. Diol. Chem. 262:12351-12355). […] The distribution was similar to that of M6P/IGF2R (shift from perinuclear area to cytoplasmic vesicles throughout the cytoplasm).
(§1) Intracellular Trafficking Materials Retinoic acid was obtained from Sigma Chem. Co. (St. Louis, Mo.). The synthetic retinoids used (AGN193109, TTNPB) were produced by Allergan Inc. (Irvine, Calif.). Stably-transfected P388D1 cells re-expressing the M6P/IGF2R were provided by Dr. William S. Sly (St. Louis University). The rabbit polyclonal antibody against the rat M6P/IGF-II receptor was a gift from Dr. R.G. MacDonald (University of Nebraska). […]

[6] = target: M6P/IGF2R (Rattus norvegicus, UniProt G3V824); test: Immunofluorescence of M6P/IGF2R distribution in fibroblasts; assay type: cell-based; set-up: endogenous in cells; host or cells: primary neonatal rat cardiac fibroblasts; details: RAR antagonist with RA
Excerpt: FIGS. 7A and 7B are photo micrographs showing the effect of retinoic acid on the distribution of the M6P/IGF2R in neonatal rat fibroblasts. […] The receptor was concentrated primarily in the perinuclear structure (probably the TGN area). […] Bar represents 4 μm.
To determine if RA affects intracellular trafficking of the M6P/IGF2R, distribution of the receptor in neonatal rat fibroblasts with or without RA treatment was visualized by immunofluorescence. The primary antibody used to target the receptor was a polyclonal anti-rat M6P/IGF2R (full length) rabbit IgG with high specificity. A non-immuno-rabbit IgG was used as a negative control. As indicated by fluorescence (FIGS. 7A and 7B), the M6P/IGF2R in the fibroblasts is normally concentrated primarily in the perinuclear structure (probably the TGN). […] This indicated a potentiating effect of RA on the trafficking of the M6P/IGF2R from the TGN to the endosomes/lysosomes.
as §1

T2 sequence (G3V824 36-2481): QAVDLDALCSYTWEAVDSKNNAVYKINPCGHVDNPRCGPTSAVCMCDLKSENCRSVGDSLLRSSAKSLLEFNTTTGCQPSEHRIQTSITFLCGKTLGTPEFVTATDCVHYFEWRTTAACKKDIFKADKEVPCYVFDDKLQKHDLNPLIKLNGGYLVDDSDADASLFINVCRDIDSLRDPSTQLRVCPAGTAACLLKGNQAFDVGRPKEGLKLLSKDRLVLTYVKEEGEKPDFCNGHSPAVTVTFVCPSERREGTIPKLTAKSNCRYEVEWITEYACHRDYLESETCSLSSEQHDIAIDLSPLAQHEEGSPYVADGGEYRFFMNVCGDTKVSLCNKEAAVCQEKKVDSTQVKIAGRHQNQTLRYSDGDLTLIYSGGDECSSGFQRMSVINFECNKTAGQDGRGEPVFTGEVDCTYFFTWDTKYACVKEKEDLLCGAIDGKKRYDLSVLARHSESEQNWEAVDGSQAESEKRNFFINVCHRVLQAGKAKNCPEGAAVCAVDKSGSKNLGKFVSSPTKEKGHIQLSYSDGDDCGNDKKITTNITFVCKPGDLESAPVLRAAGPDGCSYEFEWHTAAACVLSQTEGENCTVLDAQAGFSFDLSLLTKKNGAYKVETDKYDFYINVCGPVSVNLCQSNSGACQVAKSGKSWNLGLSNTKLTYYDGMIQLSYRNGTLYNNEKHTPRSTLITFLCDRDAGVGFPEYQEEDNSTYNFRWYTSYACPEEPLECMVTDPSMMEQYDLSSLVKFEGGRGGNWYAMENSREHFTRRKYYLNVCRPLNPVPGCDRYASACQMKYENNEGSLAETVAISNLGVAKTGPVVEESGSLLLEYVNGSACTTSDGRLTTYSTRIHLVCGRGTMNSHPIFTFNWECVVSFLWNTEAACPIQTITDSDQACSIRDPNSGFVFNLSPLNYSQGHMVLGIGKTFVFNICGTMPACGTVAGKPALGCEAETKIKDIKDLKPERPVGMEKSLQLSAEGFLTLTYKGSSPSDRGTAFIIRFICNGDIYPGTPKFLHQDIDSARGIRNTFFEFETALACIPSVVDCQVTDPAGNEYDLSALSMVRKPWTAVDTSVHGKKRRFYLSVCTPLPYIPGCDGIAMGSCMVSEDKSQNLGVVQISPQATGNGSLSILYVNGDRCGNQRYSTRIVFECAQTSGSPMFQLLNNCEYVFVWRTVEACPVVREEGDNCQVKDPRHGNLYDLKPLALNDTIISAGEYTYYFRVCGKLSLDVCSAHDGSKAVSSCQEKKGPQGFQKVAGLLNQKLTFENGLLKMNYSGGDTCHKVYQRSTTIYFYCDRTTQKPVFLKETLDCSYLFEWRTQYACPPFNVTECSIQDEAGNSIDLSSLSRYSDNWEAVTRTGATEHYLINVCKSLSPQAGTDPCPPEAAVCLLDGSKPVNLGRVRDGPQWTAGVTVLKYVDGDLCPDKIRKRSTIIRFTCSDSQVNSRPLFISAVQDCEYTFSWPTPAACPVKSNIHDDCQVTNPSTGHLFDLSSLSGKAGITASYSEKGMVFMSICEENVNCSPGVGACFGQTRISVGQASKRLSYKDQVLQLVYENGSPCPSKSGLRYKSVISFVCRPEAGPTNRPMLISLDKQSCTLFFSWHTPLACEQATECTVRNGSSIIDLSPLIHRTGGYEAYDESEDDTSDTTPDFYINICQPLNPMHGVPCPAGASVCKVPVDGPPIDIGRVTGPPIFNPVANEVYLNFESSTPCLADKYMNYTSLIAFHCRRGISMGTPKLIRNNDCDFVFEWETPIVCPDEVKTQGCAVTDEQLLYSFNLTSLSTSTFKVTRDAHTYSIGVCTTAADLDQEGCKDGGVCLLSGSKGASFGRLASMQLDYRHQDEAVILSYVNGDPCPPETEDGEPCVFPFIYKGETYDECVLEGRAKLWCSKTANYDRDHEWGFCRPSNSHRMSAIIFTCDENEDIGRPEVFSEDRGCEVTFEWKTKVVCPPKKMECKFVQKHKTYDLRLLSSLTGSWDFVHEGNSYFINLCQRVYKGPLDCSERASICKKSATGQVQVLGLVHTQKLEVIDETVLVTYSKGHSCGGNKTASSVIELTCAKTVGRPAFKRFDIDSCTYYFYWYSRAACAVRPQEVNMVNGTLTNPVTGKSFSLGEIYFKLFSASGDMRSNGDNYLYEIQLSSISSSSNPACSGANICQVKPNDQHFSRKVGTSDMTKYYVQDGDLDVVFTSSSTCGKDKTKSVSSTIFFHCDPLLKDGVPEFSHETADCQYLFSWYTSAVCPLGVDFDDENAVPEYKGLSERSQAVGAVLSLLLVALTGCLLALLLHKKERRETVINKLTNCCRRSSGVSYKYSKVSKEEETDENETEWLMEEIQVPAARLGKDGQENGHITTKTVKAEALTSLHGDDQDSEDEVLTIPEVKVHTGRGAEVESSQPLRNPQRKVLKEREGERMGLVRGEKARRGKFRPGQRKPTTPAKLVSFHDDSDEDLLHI
T1 sequence (G3V824 36-2481): as above
Sequence of M6P/IGF2R (G3V824 36-2481): as above

CC1=C(/C=C/C(C)=C/C=C/C(C)=C/CO)C(C)(C)CCC1 [retinol]
IC50 [1]: 0.12 ± 0.018 µM | Cell morphology and growth [2]: exerted effects on cell morphology and growth similar to the effects of RA | Induction of the RA-like effects on morphology, proliferation and apoptosis [3]: similarly induced | Inhibition of [3H]RA photolabeling/binding to M6P/IGF2R by nonradioactive competitor [4]: inhibited the binding

O=C[C@@H](O)[C@@H](O)[C@H](O)[C@H](O)COP(=O)(O)O [M6P, mannose 6-phosphate]
[3H]RA labeling of M6P/IGF-II receptor, presence vs absence of M6P ([4]; 5 mM M6P, measured by NIH Image, n=3): 2 fold | Enhancement of cross-linking of [3H]RA to M6P/IGF-II receptor ([4]; [3H]RA affinity photolabeling): significantly enhanced | Inhibition of [3H]RA binding to M6P/IGF-II receptor by other receptor ligands ([4]; [3H]RA affinity photolabeling): Neither M6P nor IGF-II inhibited

CC1=C(/C=C/C(C)=C/C=C/C(C)=C\C(=O)O)C(C)(C)CCC1 [13-cis-RA, 13-cis-retinoic acid]
Inhibition of [3H]RA photolabeling/binding to M6P/IGF2R by nonradioactive competitor [4]: inhibited the binding

CC1=C(/C=C/C(C)=C/C=C/C(C)=C/C=O)C(C)(C)CCC1 [retinal]
Induction of the RA-like effects on morphology, proliferation and apoptosis [3]: similarly induced

Cc1ccc(C2=CCC(C)(C)c3ccc(C#Cc4ccc(C(=O)O)cc4)cc32)cc1 [AGN193109]
Blocking of RA effect on cathepsin B distribution by RAR antagonist [5]: neither blocked by the RAR antagonist | Blocking of RA effect on M6P/IGF2R distribution by RAR antagonist [6]: neither blocked by the RAR antagonist

retinol acetate
IC50 [1]: 0.135 ± 0.03 µM | Cell morphology and growth [2]: exerted effects on cell morphology and growth similar to the effects of RA | Induction of the RA-like effects on morphology, proliferation and apoptosis [3]: similarly induced | Inhibition of [3H]RA photolabeling/binding to M6P/IGF2R by nonradioactive competitor [4]: inhibited the binding

IGF-II: insulin-like growth factor II (a protein), ligand of the M6P/IGF-II receptor
Inhibition of [3H]RA binding to M6P/IGF-II receptor by other receptor ligands ([4]; [3H]RA affinity photolabeling): Neither M6P nor IGF-II inhibited

CC1=C(/C=C/C(C)=C\C=C\C(C)=C\C(=O)O)C(C)(C)CCC1 [9-cis-RA, 9-cis-retinoic acid]
Inhibition of [3H]RA photolabeling/binding to M6P/IGF2R by nonradioactive competitor [4]: inhibited the binding
